According to PMC5113031, “Variant Exported Blood-Stage Proteins Encoded by Plasmodium Multigene Families Are Expressed in Liver Stages Where They Are Exported into the Parasitophorous Vacuole” (PLoS Pathogens, 2016):

Target: T1, P. falciparum Fam-A (PF3D7_1463500) (Plasmodium falciparum, UniProt Q8IKK1)
T1 construct: region encoding START domain, codon-optimised, cloned in pMALc2x, N-terminal His6, E. coli BL21(DE3), Ni and SEC, monomeric
Assay: […]-PC transfer from donor to acceptor vesicles
Format: biochemical
Conditions: pH 7.4, 37 °C, 30 min, 25 μg/ml protein, BSA 1 mg/ml; labelled compound (14C)

T1 sequence (Q8IKK1 entry or part of it): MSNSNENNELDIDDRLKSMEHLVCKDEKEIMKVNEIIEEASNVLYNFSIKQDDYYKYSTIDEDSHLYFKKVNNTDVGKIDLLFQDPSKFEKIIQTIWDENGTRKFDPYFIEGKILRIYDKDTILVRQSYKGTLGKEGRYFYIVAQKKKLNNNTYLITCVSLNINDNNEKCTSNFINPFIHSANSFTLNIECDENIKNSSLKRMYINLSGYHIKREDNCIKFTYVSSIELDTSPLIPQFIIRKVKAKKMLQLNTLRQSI

Compound: CCCCCCCCCCCCCCCC(=O)OC[C@H](COP(=O)([O-])OCC[N+](C)(C)C)OC(=O)CCCCCCCCCCCCCCC [L-α-DiPalmitoyl-Phosphatidylcholine]
- PC transfer activity: P. falciparum Fam-A reproducibly showed a lower, but detectable, level of PC transfer activity
